Test results: patent EP0066987B1, “N-(aryloxyalkyl)-N'-(amino-alkyl) ureas” (A.H. ROBINS COMPANY, INCORPORATED, priority 1981, dated 1982)

Assay: Side effects compared with quinidine and lidocaine
Conditions: as compared to quinidine and lidocaine

CC(C)N(CCOc1cc(Cl)cc(Cl)c1)C(=O)NCCN(C)C.O=C(O)/C=C\C(=O)O [Example 3, N-[2-(3,5-Dichlorophenoxy)ethyl]-N'-[2-(dimethylamino)ethyl]-N-(1-methylethyl)urea, maleate [1:1]]
CNS side effects: minimal CNS side effects
